In ChEMBL document CHEMBL1150242, “Subinhibitory concentrations of antibiotics induce phenazine production in a marine Streptomyces sp” (2008):
Calls of active or inactive are those of the source. The rule behind the calls is not given here.

What was measured:
Mammaliicoccus lentus = assay: Antibacterial activity against Staphylococcus lentus; format: functional
Bacillus subtilis = assay: Antibacterial activity against Bacillus subtilis; format: functional
Escherichia coli = assay: Antibacterial activity against Escherichia coli; format: functional, organism-based
Pseudomonas fluorescens = assay: Antibacterial activity against Pseudomonas fluorescens; format: functional, organism-based
Pseudomonas syringae = assay: Antibacterial activity against Pseudomonas syringae; format: functional, organism-based
Xanthomonas campestris = assay: Antibacterial activity against Xanthomonas campestris; format: functional, organism-based
Erwinia amylovora = assay: Antibacterial activity against Erwinia amylovora; format: functional, organism-based
Ralstonia solanacearum = assay: Antibacterial activity against Ralstonia solanacearum; format: functional, organism-based
Nakaseomyces glabratus = assay: Antibacterial activity against Candida glabrata; format: functional, organism-based

| SMILES | Activity (Mammaliicoccus lentus) [µg/mL] | Activity (Bacillus subtilis) | Activity (Escherichia coli) | Activity (Pseudomonas fluorescens) | Activity (Pseudomonas syringae) | Activity (Xanthomonas campestris) | Activity (Erwinia amylovora) | Activity (Ralstonia solanacearum) | Activity (Nakaseomyces glabratus) |
| --- | --- | --- | --- | --- | --- | --- | --- | --- | --- |
| COC(=O)c1cccc2nc3c(C(C(=O)OC)C(O)CCCC(C)C)cccc3nc12 (stereo unspecified) [STREPTOPHENAZINE A] | 62.5 | 46.9 µg/mL | inactive | inactive | inactive | inactive | inactive | inactive | inactive |
| CCCCCCC(O)C(C(=O)OC)c1cccc2nc3c(C(=O)OC)cccc3nc12 (stereo unspecified) [STREPTOPHENAZINE B] | 62.5 | inactive | inactive | inactive | inactive | inactive | inactive | inactive | inactive |
| COC(=O)C(c1cccc2nc3c(C(=O)O)cccc3nc12)C(O)CCCC(C)C (stereo unspecified) [STREPTOPHENAZINE C] | 46.9 | 15.6 µg/mL | inactive | inactive | inactive | inactive | inactive | inactive | inactive |
| COC(=O)c1cccc2nc3c(C(C(=O)OC)C(O)CCC(C)C)cccc3nc12 (stereo unspecified) [STREPTOPHENAZINE D] | – | 62.5 µg/mL | – | – | – | – | – | – | inactive |
| CCCCC(O)C(C(=O)OC)c1cccc2nc3c(C(=O)OC)cccc3nc12 (stereo unspecified) [STREPTOPHENAZINE E] | – | 62.5 µg/mL | – | – | – | – | – | – | inactive |
| COC(=O)c1cccc2nc3c(C(C(=O)OC)C(O)CCCCC(C)C)cccc3nc12 (stereo unspecified) [STREPTOPHENAZINE F] | 62.5 | inactive | inactive | inactive | inactive | inactive | inactive | inactive | inactive |
| CCC(C)CCCC(O)C(C(=O)OC)c1cccc2nc3c(C(=O)OC)cccc3nc12 (stereo unspecified) [STREPTOPHENAZINE G] | 62.5 | inactive | inactive | inactive | inactive | inactive | inactive | inactive | inactive |
| COC(=O)c1cccc2nc3c(C(C(=O)OC)C(O)CCCC(C)(C)O)cccc3nc12 (stereo unspecified) [STREPTOPHENAZINE H] | – | 15.6 µg/mL | – | – | – | – | – | – | inactive |
